In data set [1] the target is T1, full-length human HuR protein (Homo sapiens, UniProt Q15717).
T1 construct: full-length human HuR protein was produced by the KU COBRE-PSF Protein Purification Group; made in house
The data set is described as follows: FP-based binding of full length HuR to fluorescein-labeled target RNAs. The following applies: 16 nt RNA oligo, 3′-fluorescein. How it is done: FIG. 3 provides the results of a fluorescence polarization (FP)-based binding assay, illustrating that full length HuR binds to FITC-Bcl-2, Msi1, and XIAP RNA but not to scrambled oligo-FITC. The concentration of FITC-RNA used in the assay is 2 nM.
A fluorescence polarization (FP)-based binding assay was utilized to assess the inhibition of HuR protein interaction with the ARE site of Msi1 mRNA (“HuR-Msi1^ARE”) by compounds of interest. Briefly, full-length human HuR protein was produced by the KU COBRE-PSF Protein Purification Group and Bcl2, Msi1 and XIAP mRNA sequences (16 nt) were designed based on literature precedent^23,24,31,32. Fluorescein labeled RNAs were purchased from Dharmacon with the following sequences: Msi1 RNA: 5′-[…]-3′-fluorescein; Bcl-2 RNA: 5′-[…]-3′-fluorescein; XIAP RNA: 5′-[…] UGUC-3′-fluorescein, and a 16-nt degenerative RNA with 3′-fluorescein label was used as a negative control.

For data set [2], the target named is Musashi 2 (Msi2) (Homo sapiens, UniProt Q96DH6). The data set is described as follows: Msi2 FP assay. In kind it is binding.
Musashi 2 (Msi2), sequence (Q96DH6 whole entry, species assumed): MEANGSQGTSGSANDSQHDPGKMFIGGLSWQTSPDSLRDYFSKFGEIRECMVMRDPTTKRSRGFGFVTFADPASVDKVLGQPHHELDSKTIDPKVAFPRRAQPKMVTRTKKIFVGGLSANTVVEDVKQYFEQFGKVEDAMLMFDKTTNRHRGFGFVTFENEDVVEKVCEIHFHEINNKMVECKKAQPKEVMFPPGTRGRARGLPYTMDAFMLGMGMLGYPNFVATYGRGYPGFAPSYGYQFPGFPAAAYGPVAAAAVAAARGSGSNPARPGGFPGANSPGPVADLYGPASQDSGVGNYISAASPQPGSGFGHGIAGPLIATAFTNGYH
The subject of data set [3] is colon cancer cell line HCT116 β/W. Put plainly: Cytotoxicity assay (WST-8), HCT116 β/W. The following applies: Homo sapiens, HCT-116, 96 h incubation. Type of data set: cell-based. The method, then:
(§1) The cytotoxicity of various compounds of the present technology in several cancer cell lines (pancreatic cancer cell line MIAPaCa-2, triple-negative breast cancer cell line MDA-MB-231, and colon cancer cell lines HCT116, HCT116 β/W, and RKO) was assessed by a cytotoxicity assay. Cells were seeded in 96-well culture plates (3,000-5,000 cells/well) and treated with titrated compounds in triplicate. After 96 h incubation, cell growth medium was removed and proliferation reagent WST-8 (Sigma) was added to each well and incubated at 37° C. for 1-3 h. Absorbance was then measured with a plate reader at 450 nm with correction at 650 nm. The results were expressed as the percentage of absorbance of treated wells versus that of vehicle control. IC50, the drug concentration causing 50% growth inhibition, was calculated via sigmoid curve fitting using GraphPad Prism 5.0. The results for those compounds tested against MIAPaCa-2 and MDA-MB-231 are provided in Table 1; the results for those compounds tested against colon cancer cell lines HCT116, HCT116 β/W, and RKO are provided in Table 3.

The target of data set [4] is Msi1 (Homo sapiens, UniProt O43347). The data set is described as follows: Msi1 FP assay. Type of data set: binding. The method, then: With the FP assay of HuR-Msi1ARE binding, the inhibition of the HuR-Msi1ARE interaction by various compounds of the present technology was assessed. Similar FP assays for Musashi 2 (Msi2) and for RNA-binding protein Lin-28 homolog B (LIN28B) were also performed on various compounds of the present technology. The results of such assays for HuR are provided in Table 1 alongside the compound structures as well as ID numbers for ease of reference; the results of such assays for Msi1, Msi2, and LIN28B are provided in Table 2.
Msi1, sequence (O43347 whole entry, species assumed): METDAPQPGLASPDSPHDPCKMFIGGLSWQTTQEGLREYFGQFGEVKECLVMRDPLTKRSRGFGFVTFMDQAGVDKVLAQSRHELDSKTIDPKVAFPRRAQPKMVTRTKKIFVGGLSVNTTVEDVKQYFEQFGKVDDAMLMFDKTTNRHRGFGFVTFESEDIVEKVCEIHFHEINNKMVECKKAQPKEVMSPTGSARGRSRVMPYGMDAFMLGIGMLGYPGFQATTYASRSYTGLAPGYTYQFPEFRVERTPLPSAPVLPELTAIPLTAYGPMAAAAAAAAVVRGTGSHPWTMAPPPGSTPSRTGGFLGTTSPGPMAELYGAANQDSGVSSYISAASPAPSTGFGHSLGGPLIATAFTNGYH

Data set [5] relates to colon cancer cell line HCT116. Put plainly: Cytotoxicity assay (WST-8), HCT116. The note with it: Homo sapiens, HCT-116, 96 h incubation. In kind it is cell-based. How it is done:
as §1
(In general: Tetrazolium assays rely on reduction of a dye to a coloured formazan, in cell work by metabolically active cells.)

The subject of data set [6] is colon cancer cell line RKO. Put plainly: Cytotoxicity assay (WST-8), RKO. The note with it: 96 h incubation. Type of data set: cell-based. How it is done:
as §1

For data set [7], the system named is triple-negative breast cancer cell line MDA-MB-231. Put plainly: Cytotoxicity assay (WST-8), MDA-MB-231. In kind it is cell-based. The following applies: Homo sapiens, 96 h incubation. Summed up: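 Cells (3,000-5,000/well) were treated in triplicate with titrated compounds for 96 h, then WST-8 was added for 1-3 h at 37° C and absorbance read at 450 nm (650 nm correction). IC50 (50% growth inhibition vs vehicle) came from sigmoid curve fitting.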

For data set [8], the system named is colon cancer cell line SW480. Put plainly: Cytotoxicity assay (WST-8), SW480. In kind it is cell-based. The following applies: Homo sapiens, 96 h incubation.
The subject of data set [9] is HuR targets in MDA-MB-231 cells. The data set is described as follows: Western blot analysis of HuR targets and cell death markers. In kind it is cell-based. The text has this:
As HuR promotes stability of its target mRNAs, it is expected that HuR-inhibitors will block HuR function and shorten the half-life (t1/2) of target mRNAs. mRNA stability will be determined via quantitative real-time PCR (qRT-PCR) after co-treatment of compounds of the present technology and Actinomycin D (a transcription inhibitor). Because HuR also increases the translation of target mRNAs, the effect of compounds of the present technology on protein levels of HuR targets was probed by Western blot analysis.
(A western blot detects proteins with antibodies after separation by electrophoresis.)

Data set [10] addresses T1, full-length human HuR protein. Put plainly: FP assay of HuR-Msi1 ARE binding inhibition. The following applies: HuR-Msi1 ARE interaction; read-out: HuR Ki via FP assay. The method, boiled down: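 Fluorescence polarization competition using full-length human HuR protein and a 3′-fluorescein-labelled 16-nt Msi1 ARE RNA. A fluorescein-labelled degenerate 16-nt RNA served as negative control.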

The subject of data set [11] is MDA-MB-231 cells. Put plainly: Matrigel invasion assay. In kind it is cell-based. The following applies: 24 h pretreatment, 20 h incubation. The method, then: To examine the anti-metastatic effect of compounds of the present technology, an invasion assay using Matrigel Invasion Chambers coated with Matrigel Matrix was performed. To perform the assays, MDA-MB-231 cells pretreated with compounds for 24 hours are added to the chambers and then incubated for 20 hours. Cells that remained on the upper surface of the chamber are completely removed with a cotton swab. Cells that emigrated or invaded through the membrane/Matrigel to the bottom of the chamber were fixed and stained with 0.2% crystal violet and photographed.

The subject of data set [12] is pancreatic cancer cell line MIAPaCa-2. The data set is described as follows: Cytotoxicity assay (WST-8), MIAPaCa-2. In kind it is cell-based. The note with it: Homo sapiens, MIA PaCa-2, 96 h incubation. The method, then:
as §1

For data set [13], the target named is T2, RNA-binding protein Lin-28 homolog B (LIN28B) (Homo sapiens, UniProt Q6ZN17).
T2 sequence (Q6ZN17 1-250): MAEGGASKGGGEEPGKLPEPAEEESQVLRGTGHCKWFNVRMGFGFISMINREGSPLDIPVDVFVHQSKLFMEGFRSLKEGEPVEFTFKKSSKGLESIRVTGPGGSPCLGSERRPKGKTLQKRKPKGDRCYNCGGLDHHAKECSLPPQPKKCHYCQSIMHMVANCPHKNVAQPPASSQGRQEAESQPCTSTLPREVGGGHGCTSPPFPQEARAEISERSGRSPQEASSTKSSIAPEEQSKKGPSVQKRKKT
Put plainly: LIN28B FP assay.

Data set [14] addresses T3, HuR protein bound to ARE^Msi1-Biotin (Homo sapiens, UniProt Q15717).
T3 construct: endogenous in cells; cytoplasmic lysate
Put plainly: RNA immunoprecipitation (RNA-IP) pull-down assay. Type of data set: cell-based. The method, then:
Pull-down Assay #1—RNA Immunoprecipitation (RNA-IP): Cells with HuR overexpression will be treated with compounds, then the cell cytoplasmic lysates were collected using NE-PER Nuclear and Cytoplasmic Extraction Kit (Thermo Scientific), and subsequently to the cell cytoplasmic lysates were added the biotinylated target ARE oligo from Msi1 mRNA (ARE^Msi1-Biotin). Following this, streptavidin beads were added to pull down HuR protein bound to ARE^Msi1-Biotin. Unlabeled target AREs used as positive control. Compounds of the present technology block the HuR pull-down by the biotinylated ARE oligo, illustrating inhibition of the HuR-mRNA interaction. For example, using 20 μM KH-39, 20 μM KH-56, and 10 μM KH-58 in such a RNA-IP assay provided the data illustrated in FIG. 5. The numbers immediately below the pictured bands in FIG. 5 are calculated by diving the band intensity of the particular sample by the band intensity of the DMSO treated sample (entry 3). […]

Data set [15] concerns the target T4, HuR-bound target mRNAs in MDA-MB-231 cells (Homo sapiens, UniProt Q15717).
T4 construct: endogenous in cells; host or cells: MDA-MB-231
The data set is described as follows: Ribonucleoprotein immunoprecipitation (RNP-IP) pull-down assay. In kind it is cell-based. The method, then: Pull-down Assay #2—Ribonuleoprotein Immunoprecipitation (RNP-IP): Cells with HuR overexpression were treated with compounds, then the cell cytoplasmic lysates collected using NE-PER Nuclear and Cytoplasmic Extraction Kit (Thermo Scientific), then the cell cytoplasmic lysates incubated with anti-HuR antibody, and subsequently Protein G agarose beads (from Roche) added to pull down HuR protein. The HuR-bound target mRNAs pulled down were measured by qRT-PCR using a reported method (Ji, Q., et al., MicroRNA miR-34 inhibits human pancreatic cancer tumor-initiating cells. PLoS One, 2009. 4(8): p. e6816, incorporated herein by reference). Mouse IgG will be used as negative control. Compounds of the present technology block the target mRNAs pulled down by HuR antibody.

Data set [16] deals with MDA-MB-231 HuR knockout clones (HuR KO1 and HuR KO2). The data set is described as follows: Cytotoxicity against HuR knockout clones of MDA-MB-231. Type of data set: cell-based. The following applies: HuR KO1 and HuR KO2 vs MDA-MB-231 and sgControl. The method, then:
as §1
The cytotoxicity of KH-39 and KH-58 against HuR knockout clones was probed by the same assay as described above. […]

Where [17] appears, read: cell marked (RRM1), read-out: Msi2 (Ki) (RRM1).

Where a name gives a salt, the structure may show the parent alone. Read-outs that look alike come from different tables or passages of the source. Where only a bound is given, the exact number is not on record here.

Experimental findings from US20220213052A1, “INHIBITORS OF RNA-BINDING PROTEINS, COMPOSITIONS THEREOF, AND THERAPEUTIC USES THEROF” (The University of North Carolina at Chapel Hill, priority 2019, published 2022) are described below.

T1 sequence (Q15717 whole entry): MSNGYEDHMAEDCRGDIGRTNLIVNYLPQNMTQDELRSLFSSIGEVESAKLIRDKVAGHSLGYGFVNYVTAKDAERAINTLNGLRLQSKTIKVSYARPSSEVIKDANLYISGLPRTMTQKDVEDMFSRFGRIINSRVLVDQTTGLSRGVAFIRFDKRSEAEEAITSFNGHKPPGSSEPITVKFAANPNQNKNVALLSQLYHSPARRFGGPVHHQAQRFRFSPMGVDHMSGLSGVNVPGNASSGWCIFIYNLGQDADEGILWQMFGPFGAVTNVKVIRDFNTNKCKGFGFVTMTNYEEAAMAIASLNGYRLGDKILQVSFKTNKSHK
T4 sequence (Q15717 2-326 limits assumed): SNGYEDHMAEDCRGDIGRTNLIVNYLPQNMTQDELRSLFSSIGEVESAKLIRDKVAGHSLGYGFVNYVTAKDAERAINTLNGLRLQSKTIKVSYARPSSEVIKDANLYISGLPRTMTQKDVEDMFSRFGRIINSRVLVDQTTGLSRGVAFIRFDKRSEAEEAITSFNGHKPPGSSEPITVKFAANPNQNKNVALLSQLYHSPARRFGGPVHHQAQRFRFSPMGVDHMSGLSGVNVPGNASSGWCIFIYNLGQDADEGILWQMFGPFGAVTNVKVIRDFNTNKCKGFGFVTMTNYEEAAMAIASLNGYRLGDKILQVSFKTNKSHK
T3 sequence (Q15717 2-326 limits assumed): as above

The molecule “5′-GCUUUUAUUUAUUUUG-3′-fluorescein (3'-fluorescein, further chemistry not given here) [Msi1 RNA, Fluorescein labeled 16 nt RNA purchased from Dharmacon]” yielded a dissociation constant (Kd) in [1] of 2 nM.

For the molecule “5′-UAGUUAUUUUUA UGUC-3′-fluorescein (UAGUUAUUUUUAUGUC; 3'-fluorescein, further chemistry not given here) [XIAP RNA, Fluorescein labeled 16 nt RNA purchased from Dharmacon]”, the Kd in data set [1] came out at 3.5 nM.

For the molecule `CC(C)(C)c1ccc(C(=O)Nc2ccc3sc(/C=C/C(=O)NO)cc3c2)cc1` [KH-19, (E)-4-(tert-butyl)-N-(2-(3-(hydroxyamino)-3-oxoprop-1-en-1-yl)benzo[b]thiophen-5-yl)benzamide], the Ki in data set [2] (setting [17]) was 450 nM; in [4], 1970 nM; in data set [10] it was 150 nM; in data set [13], 3200 nM. Also, the 50% inhibitory concentration (IC50) was found to be 2630 nM in [3]; 2220 nM in [5]; 4480 nM in [6]; 1330 nM in data set [7]; 5140 nM in [8]; 2340 nM in data set [12]. In addition, in [9], the “cell death mechanisms: PARP cleavage, LC3 conversion, RIP3 activation” value was “induced cell death through apoptosis, autophagy and necroptosis”. In [9], the “protein levels of HuR targets” value is given as “decreased the protein levels of HuR targets”. The MDA-MB-231 cell invasion result in data set [11] (concentrations indicated in FIG. 8) is listed as “inhibited MDA-MB-231 cell invasion”.

Turning to `O=C(Nc1ccc2[nH]c(C(=O)NO)cc2c1)c1ccccn1` [KH-56, N-hydroxy-5-(picolinamido)-1H-indole-2-carboxamide hydrochloride], the inhibitory constant (Ki) in data set [2] (cell without (RRM1) mark, read-out: Msi2 (Ki)) was more than 20000 nM; in data set [10], more than 20000 nM; in [13], more than 20000 nM. The “ARE^Msi1-Biotin mediated pull-down of HuR protein” value in data set [14] (20 μM) is reported as “did not show pull-down of HuR protein”. In [7], this molecule had an IC50 of 75300 nM. Besides, the “HuR pull-down of target mRNAs” value in data set [15] (10 μM) was “did not provide results statistically distinguishable from vehicle control”. In addition, the MDA-MB-231 cell invasion entry in [11] (10 μM) was “did not provide a statistically significant difference”.

For `CN(C)c1ccc(C(=O)Nc2ccc3sc(C(=O)NO)cc3c2)cc1` [KH-58, 5-(4-(dimethylamino)benzamido)-N-hydroxybenzo[b]thiophene-2-carboxamide], the inhibitory constant (Ki) in data set [2] (setting [17]) is 3350 nM; in [10], 610 nM; in [13], 4570 nM. Also, the “ARE^Msi1-Biotin mediated pull-down of HuR protein” value in [14] (10 μM) is listed as “block ARE^Msi1-Biotin mediated pull-down of HuR protein”. In [7], inhibition was half-maximal at 1310 nM (IC50). The “IC50 of HuR KO clones versus parental cells and vector control cells” value in [16] is reported as “two to three folds higher IC50 values”. Also, in [15] (5 μM), the “HuR pull-down of target mRNAs” value is listed as “at least partially block HuR pull-down of target mRNAs”. Besides, the MDA-MB-231 cell invasion entry in data set [11] (5 μM) is given as “clearly inhibited MDA-MB-231 cell invasion”.

As usually defined, the Kd is the equilibrium constant for the complex coming apart. What is called Ki is the dissociation constant of the complex between target and ligand, obtained from inhibition or displacement. As a reminder, the IC50 is the concentration at which inhibition is half-maximal. Read a high IC50 as a need for much substance.
